These results are taken from patent US11149071B2, “Fusion protein Slit2D2(C386S)-HSA and use thereof in prevention and/or treatment of lung inflammation” (Asclepius (Suzhou) Technology Company Group Co., Ltd., priority 2017, dated 2021).

Experiment [1] relates to lipopolysaccharide-induced lung injury. Nature of the experiment: rat model of acute lung injury induced by airway infusion of LPS; differential cell counts in BALF. The experiment is classed as in vivo, Wistar rat. As for the experimental part:
Acute lung injury (ALI) is a systemic uncontrolled inflammatory response caused by various direct and indirect injury factors, accompanied by alveolar epithelial cells and capillary endothelial cell injury, its pathogenesis is still unclear, and there is still no effective treatment means. A rat model with airway infusion of lipopolysaccharide (LPS) is a commonly used animal model. In this study, airway infusion of LPS induced acute lung injury in rats. The animals were injected compounds via tail vein. After four hours, lung lavage and bronchoalveolar lavage fluid were collected, and differential cell were counts and measured to represent the efficacy of test compounds in preventing lipopolysaccharide-induced lung injury.
Except for group 1, all other groups were received pulmonary perfusion of lipopolysaccharide. Animals were anesthetized by 3-5% isoflurane, and 100 μl of LPS solution (1 mg/ml) was introduced into rat trachea with a micro-atomizer intubation, and after 4 hours, the animals were killed with chloral hydrate (750 mg/kg). The lungs were gently perfused three times in situ with 4 ml of PBS+1% albumin. After lavage, bronchoalveolar lavage fluid (BALF) was preserved in ice, and then the number of eosinophils (EOS), macrophages (Mac), neutrophils (Neu), lymphocytes (Lym) and the total number of cells were measured.

A further experiment deals with mouse models of asthma. Briefly: mouse models of asthma (ovalbumin sensitization and aerosol challenge); BALF cell counts, Penh, BALF cytokines. The experiment is classed as in vivo, BALB/c mice. As for the experimental part: On the first day and the 14th day of the experiment, the asthma models were sensitized by intraperitoneal injection, and the asthma group was given sensitization solution containing 20 μg of ovalbumin and 2 mg of alum suspension each time.
3.3.2 On the days 28, 29 and 30, the mice of 2-4 groups were stimulated with aerosol, which included dissolving 100 mg OVA in 10 ml PBS and adding 5 μl Triton X-100, and atomized by atomizing inhalation facility (Buxco) for 30 minutes, and then the nebulizer was turned off. Finally, the mice were kept in the inhalation box for additional 7 minutes, and following by being taken out. The negative control mice were exposed in aerosolized PBS for 30 minutes.
Group 1 (PBS control group) were injected intraperitoneally with PBS at 2 hours before PBS sensitization on the days 28, 29 and 30. Group 2 (OVA control group) were injected intraperitoneally with PBS at 2 hours before OVA sensitization on the days 28, 29 and 30. Group 3 were injected intraperitoneally with ZD018 at 2 hours before OVA sensitization on the days 28, 29 and 30. Group 4 were intragastrically administrated with dexamethasone at 2 hours before OVA sensitization on the days 28, 29 and 30.
On the 31st (24 hours after the last challenge), the Penh of mice were detected with a Buxco mouse non-invasive pulmonary function instrument. The change of Penh was determined after atomization stimulating of 300 μl doubling concentration of methacholine (Mch). The stimulating concentrations from low to high were 0, 0.78, 1.56, 3.125, 6.25, 12.5, 25 and 50 g/L, respectively. The mean value of Penh was recorded at each stimulating concentration level of Mch. The Penh value at each stimulating concentration of Mch was converted to a percentage of the Penh value at the time of the stimulating normal saline (The Penh value stimulated by Mch/The Penh value stimulated by normal saline, 100%), and represented by penh %, which was used as an evaluation index for mice airway response.
3.5 The observation of airway inflammation: the cytological examination of bronchoalveolar lavage and bronchoalveolar lavage fluid (BALF).
3.6 IL-13 and IL-5 cytokine levels in bronchoalveolar lavage fluid (BALF) were tested with Elisa Kit (R&D, USA).

Setting [2] is: test doses of 5 mg/kg, 1 mg/kg and 0.2 mg/kg i.v. 3 hours before LPS perfusion, BALF 4 hours after LPS, compared with the model group (FIG. 4).
Setting [3] is: ZD018 1 mg/kg i.p. 2 hours before OVA challenge on days 28, 29 and 30 (FIG. 6).

In the case of “Slit2D2(C386S)-HSA: recombinant fusion protein of Slit2 D2 domain (cysteine at position 386 mutated to serine) and HSA, SEQ ID NO: 2”, in experiment [1] (both at 5 mg/kg dose i.v. 3 hours before LPS perfusion (FIG. 4)), the “efficacy compared with Slit2D2-HSA recombinant protein” value is on record as “superior to Slit2D2-HSA recombinant protein”. For the same substance, in experiment [1] (setting [2]), the “increase of cell number (total number of cells in BALF)” value was “significantly inhibited” and the “number of neutrophils in bronchoalveolar lavage fluid” value was “significantly controlled”. Also, in the experiment with mouse models of asthma (ZD018 1 mg/kg i.p. 2 hours before OVA challenge on days 28, 29 and 30 (FIG. 5)), the “accumulation of eosinophils in alveolar fluid (BALF)” value is recorded as “significantly inhibit”. In the experiment on mouse models of asthma (setting [3]), the “accumulation of lymphocytes in alveolar fluid (BALF)” value is given as “inhibit” and the “accumulation of neutrophils in alveolar fluid (BALF)” value was “inhibit”. The “IL-5 cytokine level in bronchoalveolar lavage fluid (BALF)” value in the experiment with mouse models of asthma (ZD018 1 mg/kg i.p., Elisa Kit (FIG. 8)) was “inhibit”. For the same substance, the “IL-13 cytokine level in bronchoalveolar lavage fluid (BALF)” value in the experiment on mouse models of asthma (ZD018 1 mg/kg i.p., Elisa Kit (FIG. 9)) is “inhibit”. Further, in the experiment on mouse models of asthma (ZD018 1 mg/kg i.p., day 31, 24 hours after the last challenge, Mch 0-50 g/L, compared with control group G2 (FIG. 7)), the “enhanced pause (Penh) index stimulated by methacholine (Mch)” value was “effectively inhibit”.
